The text below walks through data of patent EP0808172B1, “COMBINATION OF ANGIOTENSIN CONVERTING ENZYME INHIBITOR AND ALDOSTERONE ANTAGONIST FOR THE TREATMENT OF VENTRICULAR HYPERTROPHY” (priority 1995, dated 1996).

The subject of data set [1] is patients with symptomatic heart failure. Briefly: Human clinical trial: cardiac assessments (sodium retention score, NYHA class) and changes in patient therapy. The data set is classed as in vivo, humans. Particulars: spironolactone groups vs placebo; difference not statistically significant. An excerpt: (§1) Concurrent medication within the past 30 days. • 2. 12-lead ECG • 3. […] Signs and symptoms within the past 30 days.
(§2) All statistical methods were two-sided.

For data set [2], the system named is patients afflicted with congestive heart failure. The conditions noted are these: spironolactone 100 mg/day coadministered with an ACE inhibitor; van Vliet et al 1993; cited from earlier work.
Data set [3] relates to patients with symptomatic heart failure. Briefly: Human clinical trial: hospitalizations and deaths.
The test system is the same in data set [4]. Put plainly: Human clinical trial: neurohormones (urinary aldosterone, plasma renin activity, N-terminal ANF). Particulars: 12 week visit, dose response (p = 0.002).
Data set [5] has the same test system. Briefly: Human clinical trial: weight and vital signs. The data set is classed as in vivo, humans. The conditions noted are these: 75 mg dose group, Day 9 and Week 4 visits. The method, then: as §1
Patients were evaluated 9 days after beginning study medication.
as §2

For `CC(=O)S[C@@H]1CC2=CC(=O)CC[C@]2(C)[C@H]2CC[C@@]3(C)[C@@H](CC[C@@]34CCC(=O)O4)[C@H]12` [Spironolactone, 17-hydroxy-7α-mercapto-3-oxo-17α-pregn-4-ene-21-carboxylic acid γ-lactone acetate], the “NYHA Class” value in data set [1] was “trend toward improvement”. The “patients in whom the treatment was highly effective” value in data set [2] is reported as 13 of 16. The “patients died within 30 days after the study was completed” value in data set [3] (previously at the 50 mg dose) is given as “Three”. In addition, the “Hospitalizations, percent of patients” value is reported as 7.3% in data set [3] (spironolactone 12.5 mg), 6.6% in data set [3] (spironolactone 25 mg), 27.6% in data set [3] (spironolactone 50 mg) and 14.6% in data set [3] (spironolactone 75 mg). Further, the “Urinary aldosterone excretion, change from baseline” value in data set [4] was “Greater increases were seen at higher doses of spironolactone”. Further, the “changes from baseline in body weight” value in data set [5] is “more weight loss than other patients”.
